Results reported in US20190053489A1, “ANTIMICROBIAL COMPOSITION” (NATIONAL UNIVERSITY CORPORATION TOKYO MEDICAL AND DENTAL …, priority 2016, published 2019).

Columns and labels:
MRSA [1] = details: reported by AOKI and KASHIWAGI; cited from earlier work
MRSA [2] = assay: Observation of morphological change in MRSA by electron microscope; type: cell-based, Methicillin-Resistant Staphylococcus Aureus (MRSA); details: complex 0.1% by mass, lysozyme 0.05%, chitosan 0.05%, mixture each 0.05%; FIG. 16
Description: First, the morphological change in MRSA was observed by using a scanning electron microscope. This observation with a scanning electron microscope was carried out as follows: osmium coating (4 nm) was performed as the conductive treatment, and a low-acceleration ultra-high resolution scanning electron microscope (SU 9000 manufactured by Hitachi High-Technologies Corporation (accelerating voltage: 1 kV)) was used. In addition, the samples were MRSA added with physiological saline and MRSA added with a lysozyme-chitosan complex with a concentration of 0.2% by mass.
(§1) Next, the morphological change in MRSA was observed by using a transmission electron microscope. This observation with a transmission electron microscope was carried out as follows: the sample was sliced in 50 nm with a diamond knife as the pretreatment and was stained with uranium acetate and lead citrate, and a transmission electron microscope (JEM-1400 manufactured by JEOL Ltd.) was used. In addition, the samples were MRSA added with physiological saline and MRSA added with a lysozyme-chitosan complex with a concentration of 0.2% by mass.
(§2) Observation was carried out with a scanning electron microscope for the morphological changes in MRSA and pseudomonas aeruginosa treated with the lysozyme-chitosan complex, lysozyme alone, chitosan alone, and the mixture of lysozyme and chitosan (treatment time: 2 hours). This observation with a scanning electron microscope was carried out in the same manner as Example 8 described above: osmium coating (4 nm) was performed as the conductive treatment, and a low-acceleration ultra-high resolution scanning electron microscope (SU 9000 manufactured by Hitachi High-Technologies Corporation (accelerating voltage: 1 kV)) was used. In addition, the samples were MRSA or pseudomonas aeruginosa added with physiological saline, a lysozyme-chitosan complex with a concentration of 0.1% by mass, lysozyme of 0.05% by mass, chitosan of 0.05% by mass, and a mixture of lysozyme and chitosan, each with 0.05% by mass.

[3] = system: Micrococcus luteus bacteria; assay: Heat resistance evaluation by bacteriolytic test; type: physicochemical; details: 80° C. for 2 hours; ΔOD at 10 minutes with vs without heating; complex 5%, lysozyme 2.5% aqueous solution; FIG. 6(D)
Description: This test is a bacteriolytic test using Micrococcus luteus bacteria being lysozyme-sensitive bacteria. Note that the bacteriolytic activity is an activity specific to lysozyme. Lysozyme is a protein relatively stable against heat. However, it is known that this activity generally decreases considerably for lysozyme heated at 80° C. for 30 minutes.
This test employed an aqueous solution of the lysozyme-chitosan complex with a concentration of 5%, an aqueous solution of lysozyme with a concentration of 2.5%, and an aqueous solution of the mixture of lysozyme and chitosan with a concentration of […]. In addition, Micrococcus luteus bacteria manufactured by Wako Pure Chemical Industries, Ltd. were used as the use bacteria.
First, 1 g of Micrococcus luteus bacteria was weighed on the day before the test, added to 100 ml of physiological saline, and stirred overnight at 4° C. […]
In an optical density meter, 2800 μl of the test microbial solution was set to record OD (0-1) immediately before the addition of the sample. […] Since OD increased here, the highest value OD (0-2) was recorded.
Timer measurement was started after the addition of the sample to record OD at the time of 2, 4, 6, 8, and 10 minutes passed. Each test was carried out twice, and the average was calculated.
With OD for (0-2) being OD at the time of the start, Δoptical density (AOD) at each point was calculated. […]

MRSA IID 1677 [4] = assay: Proliferation suppression against MRSA in a diluted medium (OD600); type: cell-based, Methicillin-Resistant Staphylococcus Aureus (MRSA); details: diluted 1/2.5 LB medium, 37° C., OD 600 nm; complex 0.001%, lysozyme, chitosan and each of mixture 0.0005%; FIG. 1
Description: This test employed MRSA IID 1677, and this microbe strain was cultured in a normal broth medium at 37° C. for 20 hours. The cultured microbial solution was collected by centrifugation (3000 rpm, 10 minutes), suspended with sterilized water, and then diluted with sterilized water so that the optical density would satisfy OD600=1.0. The resultant was diluted 2000 times (corresponding to 10^6 CFU/ml) to prepare a reaction microbial solution.
Each of the LB test medium samples was added with 100 μl of reaction microbial solution and was shake cultured under the condition of 37° C. for 48 hours. Here, the LB test medium samples were prepared using 10 ml of 1/2.5 LB medium added with
(1) 10 ml of sterilized water, (2) 10 ml of the lysozyme-chitosan complex with a concentration of 0.002% (the concentration after addition was 0.001%), (3) 10 ml of lysozyme alone with a concentration of 0.001% (the concentration after addition was 0.0005%), (4) 10 ml of chitosan alone with a concentration of 0.001% (the concentration after addition was 0.0005%), and (5) 10 ml of the mixture of lysozyme and chitosan with a concentration of 0.001% (the concentration of each after addition was 0.0005%).
After that, 3 ml was extracted at time intervals (0, 1, and 2 days), and the optical density was measured at an absorption wavelength of 600 nm. […]

MRSA IID 1677 [5] = assay: Proliferation suppression against MRSA in a standard medium (colony count method); type: cell-based, Methicillin-Resistant Staphylococcus Aureus (MRSA); details: standard TSB medium with phosphate buffer pH 7.0; complex 0.2%, lysozyme, chitosan, each of mixture 0.1%; FIG. 7
Description: This test employed MRSA IID 1677, and this microbe strain was inoculated in 20 ml of a normal broth medium (manufactured by Eiken Chemical Co., Ltd., ‘Eiken’) for overnight shake culture at 37° C. The cultured microbial solution was collected by centrifugation (3000 rpm, 10 minutes), suspended with sterilized water, and then diluted with sterilized water so that the optical density would satisfy OD600=1.0. The resultant was diluted 2000 times (corresponding to 10^6 CFU/ml) to prepare a reaction microbial solution.
Here, the TSB test medium samples were prepared using 10 ml of TSB medium (BD BBL™) added with 200 μl of 1 M phosphate buffer (pH 7.0), followed by further addition of
(1) 10 ml of sterilized water, ([…]), (3) 10 ml of lysozyme alone with a concentration of 0.2% (the concentration after addition was 0.1%), (4) 10 ml of chitosan alone with a concentration of 0.2% (the concentration after addition was 0.1%), and (5) 10 ml of the mixture of lysozyme and chitosan with a concentration of 0.2% (the concentration of each after addition was 0.1%).
After that, 100 μl was extracted and seeded on the MH agar medium, and the number of colonies produced was observed (colony count method). […] Note that the results of FIG. 7 are each the average value of the values obtained by carrying out the colony count method three times.
Note that the results of FIG. 8 are each the average value obtained with two replicate samples.

pseudomonas aeruginosa = assay: Observation of morphological change in pseudomonas aeruginosa by electron microscope; type: cell-based; details: complex 0.1% by mass, lysozyme 0.05%, chitosan 0.05%, mixture each 0.05%; FIG. 17
Description: as §1
Note that the morphological change in the case of adding the lysozyme-chitosan complex to pseudomonas aeruginosa was also observed using a transmission electron microscope in the same manner as above. […] In other words, the lysozyme-chitosan complex also has a resistant microbe inactivation effect for pseudomonas aeruginosa.
as §2

Compound	generation at which a resistant microbe is observed to produce (MRSA [1])	morphological change in MRSA, scanning electron microscope, treatment time 2 hours (MRSA [2])	residual activity (bacteriolytic) after heating treatment [3] [%]	proliferation suppression effect against MRSA for 48 hours (MRSA IID 1677 [4])	proliferation suppression effect against MRSA (ratio of colonies produced 6 hours later to control) (MRSA IID 1677 [5])	morphological change in pseudomonas aeruginosa, scanning electron microscope, treatment time 2 hours (pseudomonas aeruginosa)
CN(C)c1ccc(O)c2c1C[C@H]1C[C@H]3[C@H](N(C)C)C(O)=C(C(N)=O)C(=O)[C@@]3(O)C(O)=C1C2=O [minomycin]	sixth generation					
lysozyme [lysozyme alone, reference compound]		no significant morphological change was observed	73.3	observed to some extent	almost no proliferation suppression effect	no significant morphological change was observed
gentamicin	third generation					
